# Source: PubChem BioAssay AID624374 (Broad Institute, 2012)
# Records with an inconclusive call do not appear. Calls of active or inactive are those of the source. No rule for the calls is given here.
# System: not listed separately
# Test: cytotoxicity in HEK293 background cells – cell-based, dry powder, set 2, counter-screen for EBV LMP1 inhibitor project, dose response (AID 624374)
# Settings: HEK293 viability counterscreen, plate reader; at 30 µM (top of the series)
row,SMILES,"activity change, negative = viability loss"
1,C[C@H](NC(=O)C[C@@H]1C=C[C@H](NC(=O)Cc2ccccn2)[C@H](CO)O1)c1ccccc1,3.96% (inactive)
2,Cc1noc(C)c1S(=O)(=O)Nc1ccc2c(c1)C(=O)N([C@@H](C)CO)C[C@H](C)[C@H](CN(C)Cc1ccc(C(F)(F)F)cc1)OCCCC[C@@H](C)O2,11.8% (inactive)
3,CN(C)C(=O)c1cccc(-c2cccc(-c3nc(C(=O)NCc4ccccc4)cc4c3[C@@H](CCO)N([S@](=O)C(C)(C)C)C4)c2)c1,-12.3% (inactive)

# Same assay, conditions: HEK293 viability counterscreen, plate reader; at 35 µM (top of the series)
row,SMILES,"activity change, negative = viability loss"
1,C/C=C/c1cccc(-c2nc(C(=O)Nc3nccs3)cc3c2[C@@H](CCO)N(C(=O)NC(C)C)C3)c1,4.5% (inactive)
2,Cc1noc(C)c1S(=O)(=O)Nc1ccc2c(c1)C(=O)N([C@H](C)CO)C[C@@H](C)[C@H](CN(C)Cc1ccc(C(F)(F)F)cc1)OCCCC[C@@H](C)O2,-3.71% (inactive)
3,O=C(C[C@@H]1C[C@H]2c3cc(NC(=O)c4ccc5c(c4)OCO5)ccc3O[C@H]2[C@H](CO)O1)NC1CCCCC1,2.89% (inactive)
4,CC(C)NC(=O)N1Cc2cc(C(=O)NC3Cc4ccccc4C3)nc(-c3cccc(-c4cccnc4)c3)c2[C@@H]1CCO,22.6% (inactive)
5,C[C@H]1CN([C@@H](C)CO)C(=O)c2c(c3ccccc3n2C)-c2ccccc2CO[C@@H]1CN(C)C(=O)Nc1ccc(F)cc1,2.63% (inactive)
6,C[C@@H](NC(=O)C[C@@H]1C=C[C@@H](NC(=O)Cc2ccccn2)[C@H](CO)O1)c1ccccc1,5.06% (inactive)
7,C[C@H]1CN([C@@H](C)CO)C(=O)c2cc(C#Cc3ccccc3F)cnc2O[C@@H]1CN(C)C(=O)C1CCCCC1,7.95% (inactive)
8,C[C@H](NC(=O)C[C@H]1C=C[C@@H](NC(=O)Cc2ccccn2)[C@@H](CO)O1)c1ccccc1,-1.38% (inactive)
9,O=C(C[C@@H]1CC[C@H]2[C@@H](COC[C@H](O)CN2Cc2ccc(Oc3ccccc3)cc2)O1)N1CCc2ccccc2C1,-2.75% (inactive)
10,COc1cccc(S(=O)(=O)N(C)C[C@H]2Oc3cc(C4=CCCCC4)ccc3S(=O)(=O)N([C@@H](C)CO)C[C@@H]2C)c1,9.06% (inactive)
11,COc1ccccc1C#Cc1cnc2c(c1)C(=O)N([C@H](C)CO)C[C@H](C)[C@@H](CN(C)C(=O)c1ccc3c(c1)OCO3)O2,7.12% (inactive)
12,Cc1noc(C)c1S(=O)(=O)Nc1ccc2c(c1)C(=O)N([C@@H](C)CO)C[C@H](C)[C@@H](CN(C)Cc1ccc(C(F)(F)F)cc1)OCCCC[C@H](C)O2,4.59% (inactive)
13,COc1ccc(S(=O)(=O)N(C)C[C@H]2Oc3ncc(/C=C/c4ccccc4)cc3C(=O)N([C@H](C)CO)C[C@@H]2C)cc1,13.6% (inactive)
14,C[C@@H]1CN([C@H](C)CO)S(=O)(=O)c2ccc(C#C[C@@H](C)O)cc2O[C@H]1CN(C)Cc1ccc(-c2ccccc2)cc1,-18.7% (inactive)
15,N#C[C@H]1N[C@H](CO)[C@H]1c1ccc(C#Cc2ccccc2F)cc1,-10.8% (inactive)
16,Cc1noc(C)c1S(=O)(=O)Nc1ccc2c(c1)C(=O)N([C@H](C)CO)C[C@@H](C)[C@@H](CN(C)Cc1ccc(C(F)(F)F)cc1)OCCCC[C@@H](C)O2,-10.4% (inactive)
17,Cc1noc(C)c1S(=O)(=O)Nc1ccc2c(c1)C(=O)N([C@H](C)CO)C[C@@H](C)[C@H](CN(C)Cc1ccc(C(F)(F)F)cc1)OCCCC[C@H](C)O2,-6.47% (inactive)
18,COc1ccccc1C#Cc1ccc2c(c1)O[C@H](CN(C)Cc1cccnc1)[C@H](C)CN([C@H](C)CO)S2(=O)=O,4.43% (inactive)
19,CC(C)NC(=O)N1[C@H](CO)[C@H](c2ccc(C#CC3CCCCC3)cc2)[C@@H]1C#N,-6.23% (inactive)
20,COc1ccccc1C#Cc1ccc([C@H]2[C@H](C#N)N(C(=O)C3CC3)[C@H]2CO)cc1,2.46% (inactive)
21,O=C(C[C@@H]1C[C@@H]2c3cc(NC(=O)c4cccnc4)ccc3O[C@@H]2[C@H](CO)O1)NCC(F)(F)F,-0.478% (inactive)
22,O=C(Nc1ccc(C(F)(F)F)cc1)Nc1ccc2c(c1)[C@@H]1C[C@H](CC(=O)N3CCc4ccccc4C3)O[C@H](CO)[C@@H]1O2,-11.3% (inactive)
23,C[C@H]1CN([C@@H](C)CO)C(=O)Cc2cc(NC(=O)Cc3ccccc3)ccc2O[C@@H]1CN(C)Cc1ccc(C(F)(F)F)cc1,12.4% (inactive)
24,COc1cccc(S(=O)(=O)N(C)C[C@H]2Oc3cc(C4=CCCCC4)ccc3S(=O)(=O)N([C@H](C)CO)C[C@H]2C)c1,-4.57% (inactive)
25,O=C(C[C@H]1C[C@@H]2c3cc(NS(=O)(=O)c4ccc(F)cc4)ccc3O[C@@H]2[C@H](CO)O1)NC1CCCCC1,2.73% (inactive)
26,C[C@@H]1CN([C@H](C)CO)C(=O)Cc2cc(NC(=O)Cc3ccccc3)ccc2O[C@@H]1CN(C)Cc1ccc(C(F)(F)F)cc1,0.279% (inactive)

row,SMILES,"activity change, negative = viability loss"
1,Cc1noc(C)c1S(=O)(=O)Nc1ccc2c(c1)C(=O)N([C@@H](C)CO)C[C@@H](C)[C@@H](CN(C)Cc1ccc(C(F)(F)F)cc1)OCCCC[C@@H](C)O2,-11.2% (inactive)
2,CC(C)(C)[S@@](=O)N1Cc2cc(C(=O)NCc3ccccn3)nc(-c3cccc(-c4ccccc4F)c3)c2[C@H]1CCO,2.2% (inactive)
3,COc1cccc(S(=O)(=O)N(C)C[C@@H]2Oc3cc(C4=CCCCC4)ccc3S(=O)(=O)N([C@@H](C)CO)C[C@@H]2C)c1,-1.39% (inactive)
4,O=C(C[C@@H]1C[C@@H]2c3cc(NS(=O)(=O)c4ccc(F)cc4)ccc3O[C@@H]2[C@H](CO)O1)NC1CCCCC1,6.32% (inactive)
5,CC(C)NC(=O)N1Cc2cc(C(=O)NC3Cc4ccccc4C3)nc(-c3cccc(-c4cccnc4)c3)c2[C@H]1CCO,25.1% (inactive)
6,CN(C)c1ccc2c(c1)[C@@H]1C[C@@H](CC(=O)NCc3ccc(Oc4ccccc4)cc3)O[C@H](CO)[C@@H]1O2,-4.49% (inactive)
7,C[C@@H](NC(=O)C[C@H]1C=C[C@@H](NC(=O)Cc2ccccn2)[C@H](CO)O1)c1ccccc1,-2.87% (inactive)
8,C[C@@H](NC(=O)C[C@@H]1C=C[C@H](NC(=O)Cc2ccccn2)[C@@H](CO)O1)c1ccccc1,-2.91% (inactive)
9,COc1ccc(-c2cccc(-c3nc(C(=O)NCC(F)(F)F)cc4c3[C@H](CCO)N([S@@](=O)C(C)(C)C)C4)c2)cc1,-10.9% (inactive)
10,C[C@@H]1CN([C@H](C)CO)C(=O)c2c(c3ccccc3n2C)-c2ccccc2CO[C@H]1CN(C)C(=O)Nc1ccc(F)cc1,-13% (inactive)
11,C[C@H](NC(=O)C[C@H]1C[C@@H]2c3cc(NC(=O)c4cccnc4)ccc3O[C@@H]2[C@@H](CO)O1)c1ccccc1,-6.5% (inactive)
12,O=C(C[C@H]1C[C@H]2c3cc(NC(=O)c4ccc5c(c4)OCO5)ccc3O[C@H]2[C@H](CO)O1)NCc1ccc(Oc2ccccc2)cc1,-11.7% (inactive)
13,Cc1noc(C)c1S(=O)(=O)Nc1ccc2c(c1)C(=O)N([C@@H](C)CO)C[C@@H](C)[C@H](CN(C)Cc1ccc(C(F)(F)F)cc1)OCCCC[C@@H](C)O2,-0.939% (inactive)
14,N#C[C@H]1[C@H](c2ccc(C#Cc3ccccc3F)cc2)[C@@H](CO)N1C(=O)c1cccnc1,4.46% (inactive)
15,O=C(C[C@H]1C[C@@H]2c3cc(NC(=O)c4ccc5c(c4)OCO5)ccc3O[C@@H]2[C@@H](CO)O1)NCc1ccc(Oc2ccccc2)cc1,-3.98% (inactive)
16,C[C@@H](NC(=O)C[C@H]1C=C[C@H](NC(=O)Cc2ccccn2)[C@H](CO)O1)c1ccccc1,-7.68% (inactive)
17,Cc1cc(C(=O)Nc2ccc3c(c2)C(=O)N(C)[C@H]2CC[C@H](CC(=O)NCc4ccc(-c5ccccc5)cc4)O[C@H]2CO3)no1,-11.4% (inactive)
18,C[C@@H](NC(=O)C[C@H]1C=C[C@@H](NC(=O)Cc2ccccn2)[C@@H](CO)O1)c1ccccc1,2.73% (inactive)
19,COc1ccc(S(=O)(=O)N(C)C[C@@H]2Oc3ncc(/C=C/c4ccccc4)cc3C(=O)N([C@@H](C)CO)C[C@H]2C)cc1,5.95% (inactive)
20,Cc1noc(C)c1S(=O)(=O)Nc1ccc2c(c1)C(=O)N([C@H](C)CO)C[C@@H](C)[C@@H](CN(C)Cc1ccc(C(F)(F)F)cc1)OCCCC[C@H](C)O2,-1.22% (inactive)
21,C[C@H]1CN([C@@H](C)CO)C(=O)c2c(c3ccccc3n2C)-c2ccccc2CO[C@H]1CN(C)C(=O)Nc1ccc(F)cc1,-8.86% (inactive)
22,COc1cccc(S(=O)(=O)N(C)C[C@@H]2Oc3cc(C4=CCCCC4)ccc3S(=O)(=O)N([C@H](C)CO)C[C@H]2C)c1,-0.785% (inactive)
23,COc1ccccc1C#Cc1ccc2c(c1)O[C@H](CN(C)Cc1cccnc1)[C@H](C)CN([C@@H](C)CO)S2(=O)=O,-0.213% (inactive)
24,COc1ccccc1C#Cc1cnc2c(c1)C(=O)N([C@@H](C)CO)C[C@H](C)[C@@H](CN(C)C(=O)c1ccc3c(c1)OCO3)O2,9.4% (inactive)
25,C[C@@H]1CN([C@H](C)CO)C(=O)c2c(c3ccccc3n2C)-c2ccccc2CO[C@@H]1CN(C)C(=O)Nc1ccc(F)cc1,6.88% (inactive)

# System: HEK293 viability counterscreen, plate reader
# Test: as above
# Settings: not given
row,SMILES,AC35
1,O=C(C[C@@H]1C[C@@H]2c3cc(NS(=O)(=O)c4ccc(F)cc4)ccc3O[C@@H]2[C@@H](CO)O1)NCc1ccc(Oc2ccccc2)cc1,20.8 µM
2,O=C(C[C@@H]1C[C@@H]2c3cc(NC(=O)c4ccc5c(c4)OCO5)ccc3O[C@@H]2[C@@H](CO)O1)NCc1ccc(Oc2ccccc2)cc1,33.8 µM
3,COc1ccccc1CNC(=O)C[C@@H]1C[C@H]2c3cc(NC(=O)c4ccc5c(c4)OCO5)ccc3O[C@H]2[C@H](CO)O1,> 35 µM (inactive)
4,O=C(C[C@H]1C[C@@H]2c3cc(NS(=O)(=O)c4ccc(F)cc4)ccc3O[C@@H]2[C@@H](CO)O1)NCc1ccc(Oc2ccccc2)cc1,23.1 µM
